The values that follow come from ChEMBL document CHEMBL1201862, “PubChem BioAssay data set” (2004).

The source made the active and inactive calls. Some results are limits rather than exact numbers.

Assay [1] has as its target T1, Apoptotic protease-activating factor 1 (Homo sapiens, UniProt O14727).
T1 sequence (O14727 whole entry): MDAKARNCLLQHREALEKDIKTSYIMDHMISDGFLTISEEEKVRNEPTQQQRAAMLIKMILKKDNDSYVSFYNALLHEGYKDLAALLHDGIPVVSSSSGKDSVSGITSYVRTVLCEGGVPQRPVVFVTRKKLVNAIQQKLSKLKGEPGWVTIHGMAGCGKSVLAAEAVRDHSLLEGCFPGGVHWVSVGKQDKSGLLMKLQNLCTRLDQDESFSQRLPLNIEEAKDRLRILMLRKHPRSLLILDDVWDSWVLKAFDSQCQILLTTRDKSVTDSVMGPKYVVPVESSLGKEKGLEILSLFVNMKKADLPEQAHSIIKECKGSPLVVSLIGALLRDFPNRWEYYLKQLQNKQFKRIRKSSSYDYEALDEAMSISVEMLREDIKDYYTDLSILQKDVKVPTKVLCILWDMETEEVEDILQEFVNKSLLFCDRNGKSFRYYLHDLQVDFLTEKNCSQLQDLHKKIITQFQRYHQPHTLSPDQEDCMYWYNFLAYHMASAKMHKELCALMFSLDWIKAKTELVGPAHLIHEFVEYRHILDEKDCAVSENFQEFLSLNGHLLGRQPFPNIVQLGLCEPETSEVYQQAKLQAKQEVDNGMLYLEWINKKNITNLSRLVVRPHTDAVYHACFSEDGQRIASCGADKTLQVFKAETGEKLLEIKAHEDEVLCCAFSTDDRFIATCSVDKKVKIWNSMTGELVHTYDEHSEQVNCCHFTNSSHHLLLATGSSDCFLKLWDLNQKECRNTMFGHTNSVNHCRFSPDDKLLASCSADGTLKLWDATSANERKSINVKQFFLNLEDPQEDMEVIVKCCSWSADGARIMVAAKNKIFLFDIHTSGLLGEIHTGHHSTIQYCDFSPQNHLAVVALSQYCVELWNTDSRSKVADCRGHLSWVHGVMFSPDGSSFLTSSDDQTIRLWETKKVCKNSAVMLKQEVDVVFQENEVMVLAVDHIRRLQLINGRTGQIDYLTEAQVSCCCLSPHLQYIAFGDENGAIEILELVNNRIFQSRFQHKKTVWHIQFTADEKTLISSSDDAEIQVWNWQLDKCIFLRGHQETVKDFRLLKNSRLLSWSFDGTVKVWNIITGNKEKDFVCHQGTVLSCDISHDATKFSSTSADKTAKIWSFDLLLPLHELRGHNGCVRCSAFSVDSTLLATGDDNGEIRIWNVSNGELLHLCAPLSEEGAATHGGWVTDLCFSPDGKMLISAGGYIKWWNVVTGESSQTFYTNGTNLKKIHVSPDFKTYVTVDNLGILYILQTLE
The assay is classed as functional.

The target in assay [2] is T2, Histone-lysine N-methyltransferase NSD2 (Homo sapiens, UniProt O96028).
T2 sequence (O96028 whole entry): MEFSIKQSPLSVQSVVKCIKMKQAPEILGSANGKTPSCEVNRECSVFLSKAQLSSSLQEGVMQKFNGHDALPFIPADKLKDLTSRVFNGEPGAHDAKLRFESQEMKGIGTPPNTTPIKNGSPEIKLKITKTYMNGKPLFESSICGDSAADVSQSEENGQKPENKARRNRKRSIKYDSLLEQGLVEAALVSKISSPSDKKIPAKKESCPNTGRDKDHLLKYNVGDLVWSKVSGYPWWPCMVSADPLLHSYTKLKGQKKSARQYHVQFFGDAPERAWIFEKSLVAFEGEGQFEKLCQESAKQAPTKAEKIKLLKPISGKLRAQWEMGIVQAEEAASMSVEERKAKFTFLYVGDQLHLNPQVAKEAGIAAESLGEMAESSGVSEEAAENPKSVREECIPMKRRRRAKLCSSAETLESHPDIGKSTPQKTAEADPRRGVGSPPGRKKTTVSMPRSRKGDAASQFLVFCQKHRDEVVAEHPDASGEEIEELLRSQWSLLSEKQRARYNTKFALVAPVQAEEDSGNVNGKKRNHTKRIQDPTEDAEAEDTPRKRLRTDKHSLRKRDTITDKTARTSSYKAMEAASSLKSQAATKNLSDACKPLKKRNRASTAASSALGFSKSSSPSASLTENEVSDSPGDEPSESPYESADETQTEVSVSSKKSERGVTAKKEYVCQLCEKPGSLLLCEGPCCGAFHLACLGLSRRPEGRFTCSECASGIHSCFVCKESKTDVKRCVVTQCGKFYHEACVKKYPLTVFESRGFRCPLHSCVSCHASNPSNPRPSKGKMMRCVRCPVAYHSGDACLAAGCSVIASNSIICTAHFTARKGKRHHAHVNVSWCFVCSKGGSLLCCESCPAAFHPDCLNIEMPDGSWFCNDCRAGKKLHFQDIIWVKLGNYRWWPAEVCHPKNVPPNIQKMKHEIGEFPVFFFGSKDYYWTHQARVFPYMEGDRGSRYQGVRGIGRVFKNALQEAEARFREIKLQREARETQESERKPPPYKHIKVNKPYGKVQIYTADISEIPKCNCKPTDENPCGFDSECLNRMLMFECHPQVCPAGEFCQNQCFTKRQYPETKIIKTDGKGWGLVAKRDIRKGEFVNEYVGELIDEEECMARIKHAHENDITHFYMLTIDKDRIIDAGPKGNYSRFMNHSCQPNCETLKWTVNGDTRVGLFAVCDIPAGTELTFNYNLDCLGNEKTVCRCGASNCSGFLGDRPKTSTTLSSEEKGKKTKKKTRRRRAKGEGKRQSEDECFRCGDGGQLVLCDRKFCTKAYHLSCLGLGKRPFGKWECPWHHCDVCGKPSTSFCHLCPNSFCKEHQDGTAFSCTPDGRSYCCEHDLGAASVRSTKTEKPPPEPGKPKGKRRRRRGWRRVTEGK
The assay is classed as biochemical.

For assay [3], the target named is Serine/threonine-protein phosphatase PP1-alpha catalytic subunit (Homo sapiens, UniProt P62136). Kind of assay: inhibition of protein phosphatase 1 activity – biochemical, fluorescence, dose response (AID 2394).
Serine/threonine-protein phosphatase PP1-alpha catalytic subunit, sequence (P62136 whole entry): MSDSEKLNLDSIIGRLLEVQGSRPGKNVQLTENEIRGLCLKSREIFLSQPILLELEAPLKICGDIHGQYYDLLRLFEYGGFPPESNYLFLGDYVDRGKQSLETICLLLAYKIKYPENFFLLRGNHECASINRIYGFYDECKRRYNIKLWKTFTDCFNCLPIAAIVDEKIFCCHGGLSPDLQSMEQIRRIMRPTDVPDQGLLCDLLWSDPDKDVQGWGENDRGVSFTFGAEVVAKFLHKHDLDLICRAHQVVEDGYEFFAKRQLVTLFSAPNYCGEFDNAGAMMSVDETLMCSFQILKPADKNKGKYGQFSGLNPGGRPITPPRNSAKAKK
A short description of assay [4]: luciferase reporter signal suppression in cells – H4 neuroglioma cells, luminescence, dose response (AID 1990). The assay is classed as functional, cell-based. Background: Reporter assays use an easily measured gene product as a stand-in for the process of interest.
The subject of assay [5] is Streptococcus. Nature of the assay: GAS UMAA2166 growth inhibition – luminescence, BacTiterGlo, counter-screen for streptokinase expression inhibitor project, dose response (AID 1915).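 Also: potency for reduction of bacterial viability or growth.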 In kind it is functional, organism-based.

As a reminder, the IC50 is the concentration that inhibits the measured activity by half. As a reminder, the AC50 is the concentration at which the activity in the assay is half-maximal. For the molecule `COc1ccc(NC(=S)Nc2ccc3nsnc3c2)cc1`, the IC50 in assay [1] is 10.8 µM (active); in assay [3], > 67 µM (not active). In addition, the AC50 in assay [2] was 3.57 µM (active).

One may read the EC50 as the concentration needed to bring the measured effect to its halfway point. For the molecule `CC(C)(C)c1cc[n+](C2=C([N-]S(=O)(=O)c3ccccc3)C(=O)c3ccccc3C2=O)cc1`, the half-maximal effective concentration (EC50) was > 120 µM (not active) in assay [4] and 5.15 µM (active) in assay [5]. Further, the concentration at half-maximal activity (AC50) in assay [2] is 2.63 µM (active).

Regarding `O=C1C=C(Nc2ccccc2C(=O)O)c2ccccc2C1=O`, the 50% inhibitory concentration (IC50) in assay [1] was 3.84 µM (active).
